This note sets out measurements from patent publication US5962524A, “Depigmenting composition” (Caster, priority 1997, dated 1999).

A word on the LD50: it is the dose at which mortality reaches 50%.

Data set [1] deals with tyrosinase. The data set is described as follows: Inhibition of the L-DOPA-tyrosinase reaction, revealed by thin layer chromatography. The note with it: 10 μl of a 1% solution in ethanol on silica gel plate; L-DOPA 1 M, tyrosinase 238 IU/ml. Format: biochemical. The method, then: 10 μl of a 1% solution of diethyl acetone-α,α'-dioxalate in ethanol (at 96%) is deposited onto G60 silica gel plates. The migration solvent is a butanol/water/acetic acid mixture (4/1/1, v/v/v) which is migrated to a height of 10 cm. After drying, an L-DOPA solution (1 M) is sprayed over the entire plate, followed by a tyrosinase solution (238 IU/ml). […] This white spot is due to the absence of tyrosinase activity converting the L-DOPA substrate into dopaquinone, the molecule which spontaneously converts into a brown pigment (brown background) in the presence of light.

Data set [2] deals with tyrosinase. The data set is described as follows: Inhibition of the tyrosine-tyrosinase reaction, spectrophotometric assay of melanin (absorbance at 477 nm). Format: biochemical. The protocol: This is a spectrophotometric assay (absorbance at 477 nm) of the melanin produced in vitro by tyrosinase from the tyrosine substrate. […] 2.0 ml of bis Tris buffer (0.1 M, pH 6.5) and 5.0 ml of tyrosine stock solution are added to 0 ml, 1.2 ml, 2.0 ml and 2.5 ml of tyrosinase solution and the mixtures are each completed with water to a total volume of 10.0 ml. These mixtures are incubated for 1 hour and 30 minutes at 37° C. on a water bath and are then rapidly cooled to 4° C. Measurement of the absorbance of the solutions at λ=477 nm relative to a solution free of tyrosinase makes it possible to plot a calibration curve characterized by the curve equation y=0.813×+1.27×10^-3 and by a correlation coefficient equal to 0.999. The following solutions are then prepared: Control solution (100% tyrosinase activity): Solution to be ascertained: These two solutions are incubated for 1 hour 30 minutes on a water bath at 37° C. The solutions are rapidly cooled to 4° C. and the absorbance at 477 nm is then read, taking a blank free of tyrosinase as reference.

In data set [3] the test system is tyrosinase in melanocytes of human skin explants. The experiment in a line: Depigmenting power in vitro on skin explants (histological evaluation of melanocyte coloration). Type of data set: cell-based. Particulars: for tyrosinase activity: 15 hours at 37° C., 0.005 M L-DOPA. The method, then:
The inhibitory activity of diethyl acetone-α,α'-dioxalate on tyrisonase in melanocytes was evaluated by a histological study on skin explants.
After thawing and fixing for 30 minutes in 10% (w/v) formaldehyde solution, human skin explants obtained from an abdominoplasty are incubated for 15 hours at 37° C. in the presence of 0.005 M of L-DOPA and of the test products.
The diethyl acetone-α,α'-dioxalate is used at concentrations of 0.5%, 1% and 2% (w/v) in a 10% (v/v) solution of DMSO in water.
Control explants incubated only in the presence of 0.005 M of L-DOPA are prepared in parallel.
For the histological examination, 4 μm thick slices are taken from explants included in paraffin and the slices are stained with cresyl violet.
Optical microscopy photographs in white light allow a visual evaluation of the coloration of the melanocytes reflecting the tyrosinase activity.

Data set [4] deals with tail pigmentation of black mice. The data set is described as follows: Depigmenting power in vivo on the tails of black mice (lightness parameter L*). The note with it: concentration ten times as great increases the efficacy by a factor of two. The method, then: L 908/1). Composition 1: gel containing 99.0% of liposomes containing a 0.5% dose of diethyl acetone-α,α'-dioxalate Composition 2: emulsion containing 10.0% of liposomes containing a 0.5% dose of diethyl acetone-α,α'-dioxalate Reference product: composition containing 2% hydroquinone Each composition is applied daily for 28 days to the tail of four black mice. For each mouse, the lightness parameter L* is measured on day D0, D15 and D28 using a chromameter.

Data set [5] is described as follows: Oral toxicity in rats (LD50). The note with it: rat, in vivo, administered orally to rats, read-out: 50% lethal dose (LD50). The protocol:
The evaluation of the toxicity of the active principle of the present invention, administered orally to rats, gives 50% lethal dose values (LD50) of greater than 2000 mg/kg. Diethyl acetone-α,α'-dioxalate is thus not classed as a risk product.

Turning to `CCOC(=O)C(O)=CC(=O)C=C(O)C(=O)OCC` [diethyl acetone-α,α'-dioxalate], the “inhibition of the DOPA-tyrosinase reaction (white band on brown background)” value in the data set with tyrosinase [1] is listed as “effectively inhibits the DOPA-tyrosinase reaction”. Further, in the data set with tyrosinase [2] (2.58% solution in alcohol), the “in vitro production of melanin by tyrosinase from L-tyrosine” value is “effectively inhibits the in vitro production of melanin”. For the same compound, in the data set on tyrosinase [2] (mean of five tests, 2.0 ml of 2.58% solution in alcohol, 1 h 30 min at 37° C., control mean ≈1.16), the “Absorbance at 477 nm solution to be assayed, mean” value is “≈ 0”. Also, the “Absorbance at 477 nm solution to be assayed” value in the data set on tyrosinase [2] (single tests 1-5, 2.0 ml of 2.58% solution in alcohol, 1 h 30 min at 37° C., control solution 1.16-1.23) is listed as “≈ 0”. The tyrosinase activity in data set [3] (0.5% (w/v) in 10% DMSO), in data set [3] (1.0% (w/v) in 10% DMSO) and in data set [3] (2.0% (w/v) in 10% DMSO) was 0 throughout. The “inhibition of the tyrosinase activity in skin explants” value in data set [3] (tested at 0.5%, 1.0% and 2%) was “totally inhibits the tyrosinase activity”. Further, the “dose dependence of depigmenting efficacy” value in data set [4] is recorded as “acts in a dose-dependent manner”. The median lethal dose (LD50) in data set [5] was > 2000 mg/kg.
In turn, `Oc1ccc(O)cc1` [hydroquinone, reference compound] registered a tyrosinase activity in data set [3] (1.1% (w/v) in 10% DMSO) of 0.
